Source: patent publication US20060205826A1, “Method of using carotenoids in the prevention of cognitive decline and for other neuroprotection functions” (priority 2005, published 2006)
Entries after “also recorded” stand apart in the source; their conditions may differ.

System: hippocampal stem cells
Assay: Hippocampal neurogenesis (BrdU immunostaining, cell counting) in diabetic mice
Format: in vivo
Details: two weeks after the induction of diabetes, preliminary data
Text: All animals were killed with a barbiturate overdose; each group had n>8. After intracardial perfusion with 4% paraformaldehyde, brains were cut into 40-μm-thick sections (200 μm, 1 every sixth section, used for electron microscopy analysis) with a vibratome (Leica VT100M).
Sections were immersed free-floating in 0.1 M phosphate buffer plus 0.05 % sodium azide. Twenty-four-well plates were used to keep the sections separate and preserve the order of the series. Sections that were 40 μm thick were used for cell counting. Incubations were performed in 0.1 M phosphate buffer with 0.2% Triton X-100 and 10% normal goat serum. Sections were blocked by incubating for 30 min in a solution of 3% hydrogen peroxide for diaminobenzidine (Sigma) staining. BrdU immunohistochemistry was preceded with DNA denaturation of 25 min of incubation in 2 M HCl at 37° C. The primary antibodies used were 1:200 mouse anti-BrdU (Dako). […]
Cell Counting. BrdU-positive cells were counted in sections spaced 400 μm apart by using a Nikon Eclipse E200 with a Nikon 40X Plan objective (0.65 numerical aperture) throughout the granule cell layer. […] Data were expressed as total, for the whole structure, and also subanalyzed in three regions: anterior, middle, and posterior.

Q: CC1=C[C@H](O)CC(C)(C)[C@H]1/C=C/C(C)=C/C=C/C(C)=C/C=C/C=C(C)/C=C/C=C(C)/C=C/C1=C(C)C[C@@H](O)CC1(C)C [Lutein] was tested. Which “proliferation of hippocampal stem cells” value did it give?
A: Its value is “able to prevent the impairment in proliferation; also recorded: able to restore this alteration”.
